Structures can show the parent of a compound that is named as a salt. Where only a bound is given, the exact number is not on record here.

The target of this assay is T1, ALDH2 (Homo sapiens, UniProt P05091).
T1 construct: histidine-tag (N); made in house; host or cells: bacterial expression (pETite vector, IPTG induction)
T1 sequence (P05091 18-517): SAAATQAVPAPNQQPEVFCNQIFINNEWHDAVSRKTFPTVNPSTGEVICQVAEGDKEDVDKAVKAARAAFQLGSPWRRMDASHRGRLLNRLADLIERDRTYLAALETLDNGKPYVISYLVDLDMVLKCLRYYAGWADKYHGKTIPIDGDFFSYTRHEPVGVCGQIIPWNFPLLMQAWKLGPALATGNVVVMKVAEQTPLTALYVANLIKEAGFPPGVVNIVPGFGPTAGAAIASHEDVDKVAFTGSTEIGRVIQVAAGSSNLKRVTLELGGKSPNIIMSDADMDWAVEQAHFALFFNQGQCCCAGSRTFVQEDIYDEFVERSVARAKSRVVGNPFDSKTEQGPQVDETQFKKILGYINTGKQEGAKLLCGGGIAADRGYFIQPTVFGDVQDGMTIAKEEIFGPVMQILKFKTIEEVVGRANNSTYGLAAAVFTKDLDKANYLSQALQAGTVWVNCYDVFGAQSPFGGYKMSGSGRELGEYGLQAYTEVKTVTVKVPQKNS
Put plainly: Purified ALDH2 assay with propanal, NADH fluorescence. It is filed as biochemical. The settings on record: purified enzyme. In short, it runs like this:
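His-tagged human ALDH2 expressed in bacteria and purified. 2 μg enzyme incubated with 20 μM propanal and varying inhibitor concentrations at room temperature. Activity read as NADH fluorescence (Ex 350/Em 460 nm), with initial velocity from two consecutive readings over 1 minute.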

Turning to `O=Cc1cn(-c2ccccc2)nc1-c1ccc(O)cc1` [Cmpd 34], the IC50 came to 18.2 µM. This lies in the double-digit micromolar range.

`CS(=O)(=O)c1ccc(-c2nn(-c3ccccc3)cc2C(=O)Nc2cccc(F)c2)cc1` [Compound 178, 3-(4-(Methylsulfonyl)phenyl)-N-(3-fluorophenyl)-1-phenyl-1H-pyrazole-4-carboxamide] yielded an IC50 of 20.9 µM. The IC50 values of the last two molecules are within 1.5-fold of each other.

As for `CS(=O)(=O)c1ccc(-c2nn(-c3ccccc3)cc2C(=O)Nc2cccc(O)c2)cc1` [Compound 211, 3-(4-(Methylsulfonyl)phenyl)-N-(3-hydroxyphenyl)-1-phenyl-1H-pyrazole-4-carboxamide], the IC50 came to 15.5 µM.

Regarding `CS(=O)(=O)c1ccc(-c2nn(-c3ccccc3)cc2C(=O)Nc2cccc(Cl)c2)cc1` [Compound 219, 3-(4-(Methylsulfonyl)phenyl)-N-(3-chlorophenyl)-1-phenyl-1H-pyrazole-4-carboxamide], the IC50 is greater than 25 µM.

`CCS(=O)(=O)c1ccc(-c2nn(-c3ccccc3)cc2C(=O)Nc2cccc(F)c2)cc1` [Compound 223, 3-(4-(Ethylsulfonyl)phenyl)-N-(3-fluorophenyl)-1-phenyl-1H-pyrazole-4-carboxamide] displayed a 50% inhibitory concentration (IC50) of 133 µM.

Turning to `CS(=O)(=O)c1ccc(-c2nn(-c3ccccc3)cc2C(=O)Nc2cccc(F)c2O)cc1` [Compound 231, N-(3-Fluoro-2-hydroxyphenyl)-3-[4-(methylsulfonyl)phenyl]-1-phenyl-1H-pyrazole-4-carboxamide], the IC50 is 67.3 µM.

Molecule `CS(=O)(=O)c1ccc(-c2nn(-c3ccc(Cl)cc3)cc2C(=O)Nc2ccccc2O)cc1` [Compound 233, N-(2-Hydroxyphenyl)-3-[4-(methylsulfonyl)phenyl]-1-(4-chloropheny)-1H-pyrazole-4-carboxamide] showed an IC50 of 87.2 µM.

The molecule `CS(=O)(=O)c1ccc(-c2nn(-c3ccc(F)cc3)cc2C(=O)Nc2cccc(F)c2)cc1` [Compound 241, N-(3-Fluorophenyl)-3-[4-(methylsulfonyl)phenyl]-1-(4-fluorophenyl)-1H-pyrazole-4-carboxamide] gave an IC50 of 16.6 µM. This IC50 lies about 5.3-fold lower than the previous one.

As to `CS(=O)(=O)c1ccc(-c2nn(-c3ccc(OC(F)(F)F)cc3)cc2C(=O)Nc2cccc(F)c2)cc1` [Compound 258, N-(3-Fluorophenyl)-1-(4-trifluoromethoxypheny)-3-[4-(methylsulfonyl)phenyl]-1H-pyrazole-4-carboxamide], half-maximal inhibition (IC50) was put at 100 µM.

Take `CS(=O)(=O)c1ccc(-c2nn(-c3ccc(C#N)cc3)cc2C(=O)Nc2cccc(C(F)(F)F)c2)cc1` [Compound 262, 1-(4-Cyanophenyl)-N-(3-trifluoromethylphenyl)-3-[4-(methylsulfonyl)phenyl]-1H-pyrazole-4-carboxamide]: the 50% inhibitory concentration (IC50) is 16.7 µM.

As to `CS(=O)(=O)c1ccc(-c2nn(-c3cccc(F)c3)cc2C(=O)Nc2cccc(C(F)(F)F)c2)cc1` [Compound 266, 1-(3-Fluorophenyl)-N-(3-trifluoromethylphenyl)-3-[4-(methylsulfonyl)phenyl]-1H-pyrazole-4-carboxamide], 100 µM corresponded to half-maximal inhibition (IC50).

`CS(=O)(=O)c1ccc(-c2nn(-c3cccc(C#N)c3)cc2C(=O)Nc2cccc(F)c2)cc1` [Compound 268, 1-(3-Cyanophenyl)-N-(3-fluorophenyl)-3-[4-(methylsulfonyl)phenyl]-1H-pyrazole-4-carboxamide] had an IC50 of 83.7 µM.

Turning to `CS(=O)(=O)c1ccc(-c2nn(-c3cccc(C#N)c3)cc2C(=O)Nc2ccc(F)c(F)c2)cc1` [Compound 269, 1-(3-Cyanophenyl)-N-(3,4-difluorophenyl)-3-[4-(methylsulfonyl)phenyl]-1H-pyrazole-4-carboxamide], the IC50 is 67.7 µM.

In turn, `CCc1ccc(C(=O)N2CCN(c3ccc([N+](=O)[O-])c(N4CCCC4)c3)CC2)s1` [Compound 323, {4-[4-Nitro-3-(pyrrolidin-1-yl)phenyl]piperazin-1-yl}(5-ethylthiophen-2-yl)methanone] registered an IC50 of 52 µM.

`CCOc1ccsc1C(=O)N1CCN(c2ccc([N+](=O)[O-])c(N3CCCC3)c2)CC1` [Compound 326, {4-[4-Nitro-3-(pyrrolidin-1-yl)phenyl]piperazin-1-yl}(3-ethoxythiophen-2-yl)methanone] showed an IC50 of 97.3 µM.

Consider `Cc1cc(C(=O)N2CCN(c3ccc([N+](=O)[O-])c(N4CCCC4)c3)CC2)sc1C` [Compound 327, {4-[4-Nitro-3-(pyrrolidin-1-yl)phenyl]piperazin-1-yl}(4,5-dimethylthiophen-2-yl)methanone], for which the midpoint of inhibition, the IC50, lay at 79.8 µM.

On to `COc1ccsc1C(=O)N1CCN(c2ccc([N+](=O)[O-])c(N3CCCC3)c2)CC1` [Compound 329, {4-[4-Nitro-3-(pyrrolidin-1-yl)phenyl]piperazin-1-yl}(3-methoxythiophen-2-yl)methanone], for which the IC50 came to 86.4 µM.

With `Nc1ccsc1C(=O)N1CCN(c2ccc([N+](=O)[O-])c(N3CCCC3)c2)CC1` [Compound 331, {4-[4-Nitro-3-(pyrrolidin-1-yl)phenyl]piperazin-1-yl}(3-aminothiophen-2-yl)methanone hydrochloride], the IC50 was 24.9 µM.

In turn, `CC(=O)Nc1ccsc1C(=O)N1CCN(c2ccc([N+](=O)[O-])c(N3CCCC3)c2)CC1` [Compound 332] came in with an IC50 of 58.3 µM.

`O=C(c1ccc(F)s1)N1CCN(c2ccc([N+](=O)[O-])c(N3CCCC3)c2)CC1` [Compound 334, {4-[4-Nitro-3-(pyrrolidin-1-yl)phenyl]piperazin-1-yl}(5-fluorothiophen-2-yl)methanone] gave an IC50 greater than 100 µM.

As for `O=C(c1ccc(Cl)cc1)N1CCN(c2ccc([N+](=O)[O-])c(N3CCCC3)c2)CC1` [Compound 342, 4-Chlorophenyl-1-{4-[4-nitro-3-(pyrrolidin-1-yl)phenyl]piperazin-1-yl}methanone], the concentration for half-maximal inhibition (IC50) is greater than 100 µM.

The molecule `Cn1cccc1C(=O)N1CCN(c2ccc([N+](=O)[O-])c(N3CCCC3)c2)CC1` [Compound 343, [4-(4-Nitro-3-(pyrrolidin-1-yl)phenyl)piperazin-1-yl](1-methyl-1H-pyrrol-2-yl)methanone] returned an IC50 of 97.5 µM. In other words, the double-digit micromolar range.

`COc1ccc(C(=O)N2CCN(c3ccc([N+](=O)[O-])c(N4CCCC4)c3)CC2)cc1` [Compound 345, 4-Methoxyphenyl-1-{4-[4-nitro-3-(pyrrolidin-1-yl)phenyl]piperazin-1-yl}methanone] displayed a 50% inhibitory concentration (IC50) greater than 100 µM.

For `CN(C)c1ccc(C(=O)N2CCN(c3ccc([N+](=O)[O-])c(N4CCCC4)c3)CC2)cc1` [Compound 346, 4-Dimethylaminophenyl-1-{4-[4-nitro-3-(pyrrolidin-1-yl)phenyl]piperazin-1-yl}methanone], the concentration for half-maximal inhibition (IC50) is greater than 100 µM.

The IC50 is the concentration that inhibits the measured activity by half. Lower therefore signals inhibition by little substance.

The values are drawn from patent US11548875B2, “Inhibitor compounds for male contraception” (University of Washington, priority 2018, dated 2023).
